For one compound, IC50 results are on record in paper PMC4929687 (Scientific Reports, 2014).

For this assay, the target named is T1, human kidney-type glutaminase (KGA), catalytic domain (cKGA) (Homo sapiens, UniProt O94925).
T1 sequence (O94925 221-533): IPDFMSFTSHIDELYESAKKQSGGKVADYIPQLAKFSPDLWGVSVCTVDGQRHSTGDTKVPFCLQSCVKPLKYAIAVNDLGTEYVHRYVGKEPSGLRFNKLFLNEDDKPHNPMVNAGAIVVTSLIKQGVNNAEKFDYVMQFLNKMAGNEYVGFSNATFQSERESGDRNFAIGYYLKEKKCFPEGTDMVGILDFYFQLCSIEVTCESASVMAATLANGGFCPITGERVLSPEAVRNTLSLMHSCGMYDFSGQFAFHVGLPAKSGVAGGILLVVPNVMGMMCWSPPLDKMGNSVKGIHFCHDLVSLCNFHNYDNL
Description: X-ray crystal structure at […] Å. The assay is classed as biochemical.

The IC50 is the concentration that gives 50% inhibition. With `[N-]=[N+]=CC(=O)CC[C@H](N)C(=O)O` [DON, 6-diazo-5-oxo-L-norleucine], the 50% inhibitory concentration (IC50) was roughly 1 mM.
